Data as given in patent publication US8309766B2 (Obschestvo S. Organichennoi Otvetstvennostiyu …, priority 2005, dated 2012).

Key:
[1] = tested on: mice in the model of hypoxic hypoxia with hypercapnia; experiment: Hypoxic hypoxia with hypercapnia in a hermetic volume; format: in vivo; details: for Duration of hypoxia (life span), M ± m: control 25.6 ± 0.6
From the text: In order to imitate acute oxygen insufficiency the hypoxia model with hypercapnia in a hermetic volume was used (Luk'yanova L. D., Gatsura V. V., Pastushenkov L. V. Metodicheskiye recomendatsii po experimental'nomu izucheniju preparatov, predlagajemykh dlya klinicheskogo isuchenija v kachestve antihypoxicheskikh sredsyv (Methodological recommendations on experimental study of preparations proposed for clinical examination as anti-hypoxic agents). Moscow. 1960. P. 1-19]. […] weighing 27-29 grams were individually placed into 260 ml glass jars which were hermetically closed. As the animals consume oxygen, its concentration in the vessel lowers that results in death of the animals. Life span of the mice in minutes was recorded.

[2] = tested on: cyclooxygenase; experiment: In vitro effect on [14C]arachidonic acid metabolism in a cell-free homogenate of murine pulmonary tissue; format: biochemical, CBA mice; details: compound 10^−4 M, 37° C., 30 minutes
Experimental: Studies of arachidonic acid metabolism was carried out on females CBA mice who where fed a standard vivarium fodder. Animals (mice) were sacrificed, lungs were extracted, homogenized in a glass homogenizer manufactured by the firm “Wheaton” (USA) at 4° C. in 10 volumes of 0.05 M Tris-HCl buffer. Aliquots (0.5 ml) of supernatant were incubated in 0.5 μCi [1-C^14]-arachidonic acid [C^14]-AA, “Amersham”, England; specific activity 50-60 μCi/mmole) at 37° C. for 30 minutes. Non-metabolized [αC^14]-AA and products of metabolism thereof were extracted in 20 volumes of chloroform and methanol mixture (1:1) in extraction efficacy not less than 90% assessed using [C^14]-PGF2α. [C^14]-AA and metabolites thereof were separated and identified using TLC (the plates Kieselgel 60 of the “Merck” firm, Germany) using as an organic phase, the system of solvents (ethylacetate, isooctane, acetic acid, water—110:50:20:100) and labeled standards. Densitometry of autoradiochromograms obtained on the X-ray film X-Omat AR (“Kodak”, USA) and HS 11 (“ORWO”, Germany), was performed on the densiscan KS 3 (“Kipp and Zonnen”, Holland). Quantitative analysis of individual eicosanoids was carried out using radiometry of fractions obtained by high-performance liquid chromatography (the HPLC-system of the “Gilson” form, France; the column ZORBAX C8 of the “Du Pont” firm, USA) and by elution of spots on TLC-plates. The tested compounds were administered at concentration 10^−4 M.

[3] = tested on: mice, forced swimming; experiment: "Behavioral despair" test according to Porsolt; format: in vivo; details: 50 mg/kg orally
Experimental: The “behavioral despair” test according to Porsolt [R. D. Porsolt, A. Bertin and M. Jalfre.//in mice: A primary Screening Test for Antidepressants. Arch. Int. Pharmacodyn., 1977, 229, p. 327-336] is a predictive test for drugs with antidepressant action.
Stress state in mice (weighing 27-30 grams) is induced by forced swimming. Animals are placed into a cylinder (height 25 cm, diameter 10 cm) filled to ⅓ with water at temperature 21-23° C. The animals cannot escape from the cylinder by themselves. Following a short time of activity the animals develop a so called “behavioral depression” characterized by hovering of animals, immobilization duration of which can be fixed. The experiment is carried out in two days. One a first day, animals are placed into the cylinder for 15 minutes (pre-test). After removal from water, the animals are dried and preparations under testing are administered. At 24 hours, the preparations are administered again and one hour later the animals are placed into the cylinder for 6 minutes. During first two minutes the animals are actively swimming; during the subsequent four minutes, behavioral depression develops manifested by immobilization (hovering) which is fixed for 4 minutes and is measure in seconds. Compound IX and the reference antidepressant drug Fluoxetin were administered orally at a dose 50 mg/kg.

With O=C(CCc1ccc(O)cc1)NCCc1ccccc1 [Compound IX, 3-(p-hydroxyphenyl)-propionylphenylethylamine] as the compound, how does the “% change from the control” value ([1]; 10 mg/kg) read?
Its value is 0%.

And the “Duration of hypoxia (life span), M ± m” value ([1]; 10 mg/kg)?
The value was 25.3 ± 0.8 min.

What about the “Duration of hypoxia (life span), M ± m” value ([1]; 50 mg/kg) of the same compound?
The value was 32.6 ± 2.6 min.

What about the Prostanoids ([2]; b308 reads these as % cyclooxygenase inhibition) of the same compound?
The Prostanoids was −33.

And the 6-keto-PGF1α ([2]; change)?
Its 6-keto-PGF1α is −30.

And the “AA (arachidonic acid)” value ([2]; change)?
The value was “+47”.

And the PGE2 ([2]; change)?
The PGE2 was −38.

What about the PGF2α ([2]; change) of the same compound?
The PGF2α was −27.

What about the TXB2 ([2]; change) of the same compound?
Its TXB2 is −40.

What about the “% change from the control” value [3] of the same compound?
Its value is −21%.

And the “immobilization time, M ± m” value ([3]; fixed for 4 minutes, control 195.0 ± 10.3)?
Its value is 154.0 ± 11.7 s.
